{"source": "patent US20090215766A1", "about": "“TETRACYCLIC INHIBITORS OF JANUS KINASES” (Incyte Corporation, priority 2004, published 2009)", "origin": "cited, not measured here", "key": {"[1]": {"tested_on": "NOD mouse model of autoimmune type 1 diabetes"}, "[2]": {"tested_on": "myeloid dendritic cells (DCs)", "details": "CD40-induced maturation of myeloid DCs"}, "[3]": {"tested_on": "IL-6-dependent MM cell lines"}}, "data": [{"molecule": "COc1cc2ncnc(Nc3ccc(O)cc3)c2cc1OC", "note": "[JANEX-1]", "values": [{"measurement": "onset of diabetes", "setting": "[1]", "value": "delayed the onset of diabetes"}]}, {"molecule": "COc1cc2ncnc(Nc3ccc(O)c(Br)c3)c2cc1OC", "note": "[WHI-P-154]", "values": [{"measurement": "CD40-induced DC maturation effects (costimulatory molecule expression, IL-12 production, allogeneic stimulatory capacity)", "setting": "[2]", "value": "prevented these effects"}]}, {"molecule": "N#C/C(=C\\c1ccc(O)c(O)c1)C(=O)NCc1ccccc1", "note": "[tyrphostin AG490]", "values": [{"measurement": "ERK2 and STAT3 phosphorylation", "setting": "[3]", "value": "inhibited"}, {"measurement": "JAK2 kinase activity", "setting": "[3]", "value": "inhibited"}, {"measurement": "apoptosis", "setting": "[3]", "value": "induced"}, {"measurement": "cell proliferation", "setting": "[3]", "value": "suppressed"}]}]}
